Experimental findings from patent publication US11584756B2, “Heterocyclic compounds as BET inhibitors” (NUVATION BIO INC., priority 2019, dated 2023) are described below.

For one test, the target named is BRD4-1 (Homo sapiens (Human), UniProt O60885). Description: Bromodomain and Extraterminal Domain (BET) binding assay, BRD4-1. The conditions noted are these: histone H4 peptide (1-21) K5/8/12/16Ac-biotin ligand; 20 nM protein, 20 nM ligand. How it is done: (§1) The bromodomain binding assays were performed by Reaction Biology Corp., Malvern, Pa., USA (www.reactionbiology.com). The BET binding assays were conducted in 384 well microplates in assay buffer (50 mM HEPES-HCl, pH 7.5, 100 mM NaCl, 1 mg/ml BSA, 0.05% CHAPS, and 0.5% DMSO) with compounds added as DMSO stocks at a single concentration or with 10-point dose response titrations. BET protein or assay buffer were delivered to the appropriate wells of the microplate. Test compound was then delivered by acoustic technology via a Labcyte Echo550 liquid handler. The microplate was centrifuged for 5 min and pre-incubated for 30 min at RT with gentle shaking. The ligand (histone H4 peptide (1-21) K5/8/12/16Ac-biotin) was delivered and the microplate was again centrifuged for 5 min and allowed to incubate for 30 min at RT with gentle shaking. Donor beads were then added in the absence of light and the microplate was centrifuged and gently shaken. After 5 min, acceptor beads were added in the absence of light and the microplate was centrifuged and gently shaken in the dark for 60 min. The microplate was read using a Perkin Elmer EnSpire Alpha plate reader (λ Ex/λ Em=680/520-620 nm). Percent inhibition was calculated relative to positive and negative controls on a per plate basis. For titration experiments, IC50 values were determined by fitting the percent inhibition versus compound concentration.

Test [1] concerns MV-4-11 human acute myeloid leukemia cell line. Description: Cell viability assay in MV-4-11 cells (Cell Titer-Glo). In kind it is cell-based. The conditions noted are these: MV4-11, 72 hrs incubation. The protocol: The effects of test compounds were studied in a cell viability assay in the MV-4-11 human acute myeloid leukemia cell line. The cells were harvested during the logarithmic growth period and counted. Cells were seeded at a count of 15000 cells per well/100 μl. After seeding, cells were incubated at 37° C. 5% CO2 for 1 hr. Cells were treated with test compounds at 8 concentrations within a desired concentration range (e.g. 5 nM-10 μM) for generation of dose response curves by preparing serial dilutions of the test compound in DMSO which were further diluted with culture medium and then added to each well. The plate was further incubated for another 72 hrs in a humidified incubator at 37° C. and 5% CO2. The assay was terminated by addition of Cell Titer-Glo reagent (Promega, Madison, Wis.) at ¼ the volume of total medium per well. Contents were mixed, the plate was incubated for 10 min at room temperature and luminescence was measured. Cell viability data were plotted using GraphPad Prism (GraphPad Software, Inc., San Diego, Calif.). In addition, a nonlinear regression model with a sigmoidal dose response and variable slope within GraphPad Prism was used to calculate the IC50 value of individual test compounds.
On the technique in general: In ATP-based viability assays light output follows the ATP content of the culture.

Another test has as its target BRD4-2 (Homo sapiens (Human), UniProt O60885). Description: Bromodomain and Extraterminal Domain (BET) binding assay, BRD4-2. The conditions noted are these: histone H4 peptide (1-21) K5/8/12/16Ac-biotin ligand; 130 nM protein, 70 nM ligand. The protocol:
as §1

Each structure is given as a SMILES string. A value given as a limit tells only on which side of the number the result lay.

As usually defined, the IC50 is the concentration that gives 50% inhibition. For `Cc1cc(F)cc(C)c1Oc1ccc(C(C)(C)O)cc1-c1cn(C)c(=O)c2ccsc12` [Compound 2.1, 7-(2-(4-fluoro-2,6-dimethylphenoxy)-5-(2-hydroxypropan-2-yl)phenyl)-5-methylthieno[3,2-c]pyridin-4(5H)-one], the concentration for half-maximal inhibition (IC50) at BRD4-1 turned out to be 2500 nM; in test [1] it was 0.47 µM; on BRD4-2, 19.8 nM.

Regarding `Cn1cc(-c2cc(C(C)(C)O)ccc2Oc2ccc(F)cc2F)c2sccc2c1=O` [Compound 2.3, 7-(2-(2,4-difluorophenoxy)-5-(2-hydroxypropan-2-yl)phenyl)-5-methylthieno[3,2-c]pyridin-4(5H)-one], the IC50 at BRD4-1 was determined as 118 nM; in test [1], 0.163 µM; on BRD4-2, 28.5 nM.

`CCS(=O)(=O)Nc1ccc(Oc2ccc(F)cc2F)c(-c2cn(C)c(=O)c3ccsc23)c1` [Compound 2.91, N-(4-(2,4-difluorophenoxy)-3-(5-methyl-4-oxo-4,5-dihydrothieno [3,2-c]pyridin-7-yl)phenyl)ethanesulfonamide]: the IC50 is 15 nM at BRD4-1 and 7.3 nM at BRD4-2.

For the molecule `Cn1cc(-c2cc(C(C)(C)O)ccc2Oc2ccc(F)cc2F)c2cc(C(=O)NCC(F)(F)F)sc2c1=O` [Compound 5, 4-(2-(2,4-difluorophenoxy)-5-(2-hydroxypropan-2-yl)phenyl)-6-methyl-7-oxo-N-(2,2,2-trifluoroethyl)-6,7-dihydrothieno[2,3-c]pyridine-2-carboxamide], the IC50 on BRD4-1 came out at 744 nM; in test [1] it was 0.597 µM; at BRD4-2, 18 nM.

Take `Cn1cc(-c2cc(C(C)(C)O)ccc2Oc2ccc(F)cc2F)c2cc(C(=O)N3CCCCC3)sc2c1=O` [Compound 6, 4-(2-(2,4-difluorophenoxy)-5-(2-hydroxypropan-2-yl)phenyl)-6-methyl-2-(piperidine-1-carbonyl)thieno[2,3-c]pyridin-7(6H)-one]: the figures for the IC50 (at BRD4-1; in test [1]; on BRD4-2) were 1480 nM, 1.79 µM and 32 nM, respectively.

Regarding `Cn1cc(-c2cc(C(C)(C)O)ccc2Oc2ccc(F)cc2F)c2cc(CN3CCCCC3)sc2c1=O` [Compound 7, 4-(2-(2,4-difluorophenoxy)-5-(2-hydroxypropan-2-yl)phenyl)-6-methyl-2-(piperidin-1-ylmethyl)thieno[2,3-c]pyridin-7(6H)-one], the figures for the IC50 (in test [1]; at BRD4-2) were 2.48 µM and 497 nM, respectively.

`Cc1nnc(-c2cc3c(-c4cc(C(C)(C)O)ccc4Oc4ccc(F)cc4F)cn(C)c(=O)c3s2)o1` [Compound 12, 4-(2-(2,4-difluorophenoxy)-5-(2-hydroxypropan-2-yl)phenyl)-6-methyl-2-(5-methyl-1,3,4-oxadiazol-2-yl)thieno[2,3-c]pyridin-7(6H)-one]: the IC50 at BRD4-1 came out at 17 nM; in test [1] it was 0.074 µM; on BRD4-2, 12.5 nM.

On to `Cn1cc(-c2cc(C(C)(C)O)ccc2Oc2ccc(F)cc2F)c2cc(C(=O)NC3(C(F)(F)F)CC3)sc2c1=O` [Compound 14, 4-(2-(2,4-difluorophenoxy)-5-(2-hydroxypropan-2-yl)phenyl)-6-methyl-7-oxo-N-(1-(trifluoromethyl)cyclopropyl)-6,7-dihydrothieno[2,3-c]pyridine-2-carboxamide], for which the IC50 at BRD4-1 amounted to 1170 nM; in test [1] it was 0.768 µM; on BRD4-2, 47 nM.

In the case of `Cn1cc(-c2cc(C(C)(C)O)ccc2Oc2ccc(F)cc2F)c2cc(C(=O)N3CCC(F)(F)CC3)sc2c1=O` [Compound 22, 4-(2-(2,4-difluorophenoxy)-5-(2-hydroxypropan-2-yl)phenyl)-2-(4,4-difluoropiperidine-1-carbonyl)-6-methylthieno[2,3-c]pyridin-7(6H)-one], the figures for the IC50 (at BRD4-1; in test [1]; on BRD4-2) were 638 nM, 1.41 µM and 11 nM, respectively.

`Cn1cc(-c2cc(C(C)(C)O)ccc2Oc2ccc(F)cc2F)c2cc(C(=O)N3CCC(F)(F)C3)sc2c1=O` [Compound 76, 4-(2-(2,4-difluorophenoxy)-5-(2-hydroxypropan-2-yl)phenyl)-2-(3,3-difluoropyrrolidin-1-carbonyl)-6-methylthieno[2,3-c]pyridin-7(6H)-one]: the IC50 at BRD4-1 is 265 nM; in test [1], 0.879 µM; at BRD4-2, 17 nM.

Turning to `C=C(C)c1ccc(Oc2c(C)cc(F)cc2C)c(-c2cn(C)c(=O)c3sc(C(=O)NCC)cc23)c1` [Compound 148, N-ethyl-4-(2-(4-fluoro-2,6-dimethylphenoxy)-5-(prop-1-en-2-yl)phenyl)-6-methyl-7-oxo-6,7-dihydrothieno[2,3-c]pyridine-2-carboxamide], the IC50 was over 10000 nM on BRD4-1, 1.28 µM in test [1] and 103 nM on BRD4-2.

For `Cc1cc(F)cc(C)c1Oc1ccc(C(C)(C)O)cc1-c1cn(C)c(=O)c2sc(C(=O)NCc3ccccc3)cc12` [Compound 149, N-benzyl-4-(2-(4-fluoro-2,6-dimethylphenoxy)-5-(2-hydroxypropan-2-yl)phenyl)-6-methyl-7-oxo-6,7-dihydrothieno[2,3-c]pyridine-2-carboxamide], the IC50 at BRD4-1 is over 10000 nM; in test [1], 1.5 µM; on BRD4-2, 103 nM.

For the molecule `CNC(=O)c1cc2c(-c3cc(C(C)(C)O)ccc3Oc3c(C)cc(F)cc3C)cn(C)c(=O)c2s1` [Compound 150, 4-(2-(4-fluoro-2,6-dimethylphenoxy)-5-(2-hydroxypropan-2-yl)phenyl)-N,6-dimethyl-7-oxo-6,7-dihydrothieno[2,3-c]pyridine-2-carboxamide], the results for the IC50 (at BRD4-1; in test [1]; on BRD4-2) were 3600 nM, 0.193 µM and 1.2 nM, respectively.

For `Cc1cc(F)cc(C)c1Oc1ccc(C(C)(C)O)cc1-c1cn(C)c(=O)c2sc(C(=O)Nc3ccccc3)cc12` [Compound 151, 4-(2-(4-fluoro-2,6-dimethylphenoxy)-5-(2-hydroxypropan-2-yl)phenyl)-6-methyl-7-oxo-N-phenyl-6,7-dihydrothieno[2,3-c]pyridine-2-carboxamide], the IC50 on BRD4-1 worked out at 9380 nM; in test [1] it was 0.282 µM; at BRD4-2 it was 3.2 nM.

As to `Cc1nnc(-c2cc3c(-c4cc(C(C)(C)O)ccc4Oc4c(C)cc(F)cc4C)cn(C)c(=O)c3s2)[nH]1` [Compound 152, 4-(2-(4-fluoro-2,6-dimethylphenoxy)-5-(2-hydroxypropan-2-yl)phenyl)-6-methyl-2-(5-methyl-4H-1,2,4-triazol-3-yl)thieno[2,3-c]pyridin-7(6H)-one], the values for the IC50 (at BRD4-1; in test [1]; on BRD4-2) were 1490 nM, 0.536 µM and 9 nM, respectively.

With `Cc1cc(F)cc(C)c1Oc1ccc(C(C)(C)O)cc1-c1cn(C)c(=O)c2sc(-c3nc4ccccc4o3)cc12` [Compound 153, 2-(benzo[d]oxazol-2-yl)-4-(2-(4-fluoro-2,6-dimethylphenoxy)-5-(2-hydroxypropan-2-yl)phenyl)-6-methylthieno[2,3-c]pyridin-7(6H)-one], the IC50 on BRD4-1 was over 10000 nM; in test [1], 3.83 µM; at BRD4-2 it was 526 nM.

With `CCN(CC)C(=O)c1cc2c(-c3cc(C(C)(C)O)ccc3Oc3c(C)cc(F)cc3C)cn(C)c(=O)c2s1` [Compound 155, N,N-diethyl-4-(2-(4-fluoro-2,6-dimethylphenoxy)-5-(2-hydroxypropan-2-yl)phenyl)-6-methyl-7-oxo-6,7-dihydrothieno[2,3-c]pyridine-2-carboxamide], the IC50 on BRD4-1 was over 10000 nM; at BRD4-2 it was 4070 nM.

With `C=C(C)c1ccc(Oc2c(C)cc(F)cc2C)c(-c2cn(C)c(=O)c3cc(C(=O)NCC)sc23)c1` [Compound 156, N-ethyl-7-(2-(4-fluoro-2,6-dimethylphenoxy)-5-(prop-1-en-2-yl)phenyl)-5-methyl-4-oxo-4,5-dihydrothieno[3,2-c]pyridine-2-carboxamide], the IC50 is over 10000 nM on BRD4-1 and 740 nM on BRD4-2.

`CCNC(=O)c1cc2c(=O)n(C)cc(-c3cc(C(C)(C)O)ccc3Oc3ccc(F)cc3F)c2s1` [Compound 159, 7-(2-(2,4-difluorophenoxy)-5-(2-hydroxypropan-2-yl)phenyl)-N-ethyl-5-methyl-4-oxo-4,5-dihydrothieno[3,2-c]pyridine-2-carboxamide]: the IC50 on BRD4-1 worked out at 18 nM; at BRD4-2, 1.7 nM.
